This passage reports inhibition results from ChEMBL document CHEMBL1800013, “Small molecule inhibitors of SHP2 tyrosine phosphatase discovered by virtual screening” (Bioorg Med Chem Lett, 2011).

Active and inactive are the calls of the source. The rule behind the calls is not given here.

In assay [1] the target is T1, Tyrosine-protein phosphatase non-receptor type 22 (Homo sapiens) (UniProt Q9Y2R2).
T1 sequence (whole entry): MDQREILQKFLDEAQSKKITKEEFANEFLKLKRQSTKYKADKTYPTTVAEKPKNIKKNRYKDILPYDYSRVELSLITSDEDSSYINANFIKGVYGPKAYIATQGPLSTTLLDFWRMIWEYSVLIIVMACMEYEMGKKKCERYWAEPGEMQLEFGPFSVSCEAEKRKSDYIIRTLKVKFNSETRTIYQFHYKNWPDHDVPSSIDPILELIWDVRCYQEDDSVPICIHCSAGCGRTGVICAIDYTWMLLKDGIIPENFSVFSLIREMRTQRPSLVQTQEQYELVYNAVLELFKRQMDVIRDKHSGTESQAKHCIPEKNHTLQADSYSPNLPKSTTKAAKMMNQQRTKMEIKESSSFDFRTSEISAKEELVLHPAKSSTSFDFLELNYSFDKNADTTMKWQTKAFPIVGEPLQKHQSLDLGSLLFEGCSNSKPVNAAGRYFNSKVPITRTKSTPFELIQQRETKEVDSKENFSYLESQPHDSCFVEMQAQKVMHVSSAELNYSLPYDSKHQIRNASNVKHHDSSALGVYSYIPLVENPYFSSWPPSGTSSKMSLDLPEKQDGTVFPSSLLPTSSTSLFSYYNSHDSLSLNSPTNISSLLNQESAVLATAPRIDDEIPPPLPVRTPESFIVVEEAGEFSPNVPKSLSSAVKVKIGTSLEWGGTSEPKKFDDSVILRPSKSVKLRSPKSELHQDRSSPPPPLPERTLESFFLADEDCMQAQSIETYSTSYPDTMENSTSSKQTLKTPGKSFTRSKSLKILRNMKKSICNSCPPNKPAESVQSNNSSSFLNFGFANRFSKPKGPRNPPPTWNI
Description: Inhibition of LYP at 100 uM.

The target in assay [2] is T2, Tyrosine-protein phosphatase non-receptor type 11 (Homo sapiens) (UniProt Q06124).
T2 sequence (whole entry): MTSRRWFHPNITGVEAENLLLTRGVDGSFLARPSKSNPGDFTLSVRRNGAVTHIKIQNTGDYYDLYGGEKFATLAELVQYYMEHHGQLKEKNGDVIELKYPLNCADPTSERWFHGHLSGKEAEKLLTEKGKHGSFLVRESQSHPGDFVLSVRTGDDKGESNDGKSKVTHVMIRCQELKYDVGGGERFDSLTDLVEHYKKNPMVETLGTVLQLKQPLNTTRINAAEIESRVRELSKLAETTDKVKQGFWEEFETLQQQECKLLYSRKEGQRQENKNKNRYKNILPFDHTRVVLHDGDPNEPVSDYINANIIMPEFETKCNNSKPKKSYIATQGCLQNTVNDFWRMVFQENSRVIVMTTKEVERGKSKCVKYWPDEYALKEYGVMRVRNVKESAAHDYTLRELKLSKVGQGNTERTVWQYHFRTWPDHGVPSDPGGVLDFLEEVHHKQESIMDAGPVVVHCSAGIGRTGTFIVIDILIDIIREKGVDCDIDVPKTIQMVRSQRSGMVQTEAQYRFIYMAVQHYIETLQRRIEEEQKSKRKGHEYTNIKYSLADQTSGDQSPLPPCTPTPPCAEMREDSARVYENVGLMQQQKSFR
Description: Inhibition of SHP2 catalytic domain assessed as inhibition of pNPP to p-nitrophenol conversion at 50 uM after 5 mins by spectrophotometry.

As to `Cc1cc(S(=O)(=O)O)c(S(=O)(=O)O)cc1N1N=C(C(=O)O)CC1=O`, in assay [1], the inhibition result was “inactive”. Further, the inhibition in assay [2] stood at 91%.
